Results on two compounds are retold here after patent publication US11760762B2, “Thienopyranones and furanopyranones as kinase, bromodomain, and checkpoint inhibitors” (SignalRx Pharmaceuticals, Inc., priority 2017, dated 2023).

In general, IC50 refers to the concentration that inhibits the measured activity by half. Usually AUC(0-inf) stands for the area under the concentration-time curve extrapolated to infinity. One may read the Cmax as the highest concentration seen after dosing. What is called Tmax is the time at which the peak concentration occurs.

For one data set, the target named is T1, BRD4 binding domain 1 (Homo sapiens, UniProt O60885).
T1 construct: Reaction Biology Corp., Malvern, PA (contract assay service)
As to the kind of experiment: Bromodomain protein inhibition (Reaction Biology Corp.). As to conditions: read-out: IC50 BRD4 binding domain 1. Here is the method:
(§1) PI3K-alpha, PI3K-beta, PI3K-gamma, and PI3K-delta inhibition activity was determined by Thermo Fisher Scientific-Biosciences Life Sciences Solutions, Madison, WI The bromodomain protein inhibition (binding domain 1 and 2 of BRD4) was determined by Reaction Biology Corp., Malvern, PA The cyclin dependent kinase inhibition on proteins such as CDK2, CDK4, CDK6, and CDK9 was determined by Reaction Biology Corp., Malvern, PA.
(§2) The compounds of the invention were characterized by their ability to inhibit the target proteins using third party vendors offering such services. PI3K-alpha, PI3K-gamma, and PI3K-delta inhibition activity was determined by Thermo Fisher Scientific-Biosciences Life Sciences Solutions, Madison, WI. […] ND=not done.

A further data set concerns the target T2, BRD4 binding domain 2 (Homo sapiens, UniProt O60885).
T2 construct: Reaction Biology Corp., Malvern, PA (contract assay service)
The data set is described as above. Conditions: read-out: IC50 BRD4 binding domain 2. Here is the method:
as §1, §2

A further data set has as its target CDK4/Cyclin D1 (Homo sapiens, UniProt P11802). Conditions: Divakar et al., Leukemia 2016; cited from earlier work.
The next data set has as its target CDK6/Cyclin D1 (Homo sapiens, UniProt Q00534). Conditions: Divakar et al., Leukemia 2016; cited from earlier work.
The test system of the next data set is Jeko-1. As to the kind of experiment: Mantle cell lymphoma cell viability, AlamarBlue. The class given is cell-based. The protocol: (§3) Mantle cell lymphoma cell lines Granta, Mino and Jeko-1 were seeded at a density of 2500 cells/0.1 mL per well in a 96-well plate. Compounds 1 or Palbociclib were added post-plating at 50 μM-50 nM concentrations for 48 hours followed by addition of AlamarBlue® and incubation of plates at 37° C. in 5% CO2 for 6 hours. Fluorescence signals were read as emission at 590 nm after excitation at 560 nm. IC50 for each cell line was determined using Graphpad Prism software module.

For another data set, the system named is Granta. As to the kind of experiment: Mantle cell lymphoma cell viability, AlamarBlue. It is filed as cell-based. Here is the method: as §3
Background: Alamar Blue is a resazurin reagent that responds to reducing activity.

For a further data set, the system named is Mino. The data set is described as follows: Mantle cell lymphoma cell viability, AlamarBlue. It is filed as cell-based. The protocol: as §3
A further data set concerns Hep3B. The data set is described as follows: Hepatocellular carcinoma cell viability, AlamarBlue. It is filed as cell-based. As to conditions: Homo sapiens, 24 hours, read-out: Hepatocarcinoma Cell Line IC50 Values Hep3B. The protocol: (§4) Cells were seeded into 96-well plate at 1×10^4 cell per well in complete medium+10% FCS and incubated for 24 hours prior to the addition of compounds at concentrations ranging from 50 μM to 50 nM. Cell viability was quantitated 24 hours after the addition of compounds using AlamarBlue® viable cell detection reagent. IC50 curves were determined using Graphpad Prism software.

For another data set, the system named is Huh7. The description is as above. The class given is cell-based. As to conditions: Homo sapiens, Huh-7; 24 hours; read-out: Hepatocarcinoma Cell Line IC50 Values Huh7. The protocol:
as §4

The subject of a further data set is HepG2. The data set is described as above. The class given is cell-based. As to conditions: Homo sapiens, 24 hours, read-out: Hepatocarcinoma Cell Line IC50 Values HepG2. Here is the method: as §4
The next data set concerns Huh7 2H cell line. As to the kind of experiment: Huh7 2H cell viability. It is filed as cell-based. Conditions: Homo sapiens, Huh-7, 2 h. Here is the method:
as §4
The procedures of example 6 were followed except using the Huh7 2H cell line.

A further data set deals with SMS-KNCR. As to the kind of experiment: Neuroblastoma cell viability, Alamar Blue. Conditions: Homo sapiens, 24 hours incubation. The class given is cell-based. Here is the method:
(§5) IC50 for each cell line was determined using Graphpad Prism software module.

The subject of another data set is CHLA-136. As to the kind of experiment: Neuroblastoma cell viability, Alamar Blue. As to conditions: Homo sapiens, 24 hours incubation. The class given is cell-based. The protocol: as §5
The next data set relates to CHLA-255. The data set is described as follows: Neuroblastoma cell viability, Alamar Blue. It is filed as cell-based. Conditions: Homo sapiens, 24 hours incubation. Here is the method:
as §5

Data set [1] is described as follows: Oral pharmacokinetic (PK) study (Quintara Discovery). It is filed as in vivo. Conditions: plasma, oral gavage 30 mg/kg. The source says:
The in vivo anticancer activity displaying drug like properties also bears this out as shown in FIG. 9 and the corresponding example.

Another data set deals with T3, CDK6 (Homo sapiens, UniProt Q00534).
T3 construct: Reaction Biology Corp., Malvern, PA (contract assay service)
T3 sequence (Q00534 whole entry): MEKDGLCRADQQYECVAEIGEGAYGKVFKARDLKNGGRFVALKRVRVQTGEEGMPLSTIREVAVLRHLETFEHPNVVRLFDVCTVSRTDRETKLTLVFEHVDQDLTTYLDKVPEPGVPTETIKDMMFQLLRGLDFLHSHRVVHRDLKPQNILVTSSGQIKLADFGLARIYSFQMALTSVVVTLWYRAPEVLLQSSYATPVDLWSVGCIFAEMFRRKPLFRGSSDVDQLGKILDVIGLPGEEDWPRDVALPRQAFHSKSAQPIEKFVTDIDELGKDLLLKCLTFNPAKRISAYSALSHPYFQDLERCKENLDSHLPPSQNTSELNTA
T3 sequence (P24385 whole entry partner): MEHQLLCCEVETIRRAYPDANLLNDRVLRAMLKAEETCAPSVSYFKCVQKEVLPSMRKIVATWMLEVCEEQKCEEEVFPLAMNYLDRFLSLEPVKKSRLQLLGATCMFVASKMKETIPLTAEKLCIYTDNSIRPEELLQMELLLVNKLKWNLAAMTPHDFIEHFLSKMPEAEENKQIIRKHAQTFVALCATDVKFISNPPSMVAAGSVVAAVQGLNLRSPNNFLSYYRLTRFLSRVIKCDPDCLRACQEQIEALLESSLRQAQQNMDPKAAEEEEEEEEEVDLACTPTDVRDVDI
The data set is described as follows: Cyclin dependent kinase inhibition (Reaction Biology Corp.). The class given is biochemical. Here is the method:
as §1
(§6) The compounds of the invention were characterized by their ability to inhibit the target proteins using third party vendors offering such services. PI3K-alpha, PI3K-gamma, and PI3K-delta inhibition activity was determined by Thermo Fisher Scientific-Biosciences Life Sciences Solutions, Madison, WI. […] NI=no inhibition detected up to 50 μM or IC50 not reached at 50 μM. ND=not done.

Another data set deals with T4, CDK4 (Homo sapiens, UniProt P11802).
T4 construct: Reaction Biology Corp., Malvern, PA (contract assay service)
T4 sequence (P11802 whole entry): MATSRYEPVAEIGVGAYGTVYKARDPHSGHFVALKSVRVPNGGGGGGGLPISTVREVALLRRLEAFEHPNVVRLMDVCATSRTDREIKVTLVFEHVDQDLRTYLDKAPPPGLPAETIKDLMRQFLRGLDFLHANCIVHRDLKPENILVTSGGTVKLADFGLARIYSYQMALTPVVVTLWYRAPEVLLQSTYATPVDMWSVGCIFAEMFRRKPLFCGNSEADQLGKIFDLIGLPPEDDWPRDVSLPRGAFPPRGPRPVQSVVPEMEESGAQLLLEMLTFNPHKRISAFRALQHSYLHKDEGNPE
T4 sequence (P24385 whole entry partner): as the sequence (P24385 whole entry partner) above
The data set is described as above. The class given is biochemical. Here is the method:
as §1, §6

The next data set concerns the target PIM1 (Homo sapiens, UniProt P11309). As to the kind of experiment: PIM1 inhibition. The class given is biochemical.
Data set [2] concerns Huh7 cells. As to the kind of experiment: Western blot signaling in IGF-1 stimulated Huh7 cells (p-AKT, pRB). The class given is cell-based. As to conditions: Huh7, serum starved, IGF-1 stimulation 30 min. Here is the method: The hepatocellular carcinoma cell line, Huh7 was serum starved overnight in serum free medium. Cells were seeded into a 96 well tissue culture plate at 1×10^4 cells/well and pulsed with IGF-1 stimulation for 30 min at 37° C. at which time lysates were generated for SDS PAGE analysis. Western blot analysis was performed for p-AKT, AKT, pRB, RB and beta actin as loading control.
A general note: In western blotting, separated proteins are transferred to a membrane and probed.

In another data set the target is T5, CDK9 (Homo sapiens, UniProt P50750).
T5 construct: Reaction Biology Corp., Malvern, PA (contract assay service)
T5 sequence (P50750 whole entry): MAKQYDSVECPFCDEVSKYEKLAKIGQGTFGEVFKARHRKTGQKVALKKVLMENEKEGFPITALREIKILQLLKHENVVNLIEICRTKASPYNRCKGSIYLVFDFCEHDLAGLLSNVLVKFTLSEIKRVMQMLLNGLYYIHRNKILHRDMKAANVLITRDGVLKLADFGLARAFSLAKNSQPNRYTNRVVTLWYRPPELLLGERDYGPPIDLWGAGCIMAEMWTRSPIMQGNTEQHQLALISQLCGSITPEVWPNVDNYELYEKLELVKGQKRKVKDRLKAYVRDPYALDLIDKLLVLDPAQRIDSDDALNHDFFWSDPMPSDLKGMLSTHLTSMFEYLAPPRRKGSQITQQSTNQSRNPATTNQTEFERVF
T5 sequence (O60563 whole entry partner): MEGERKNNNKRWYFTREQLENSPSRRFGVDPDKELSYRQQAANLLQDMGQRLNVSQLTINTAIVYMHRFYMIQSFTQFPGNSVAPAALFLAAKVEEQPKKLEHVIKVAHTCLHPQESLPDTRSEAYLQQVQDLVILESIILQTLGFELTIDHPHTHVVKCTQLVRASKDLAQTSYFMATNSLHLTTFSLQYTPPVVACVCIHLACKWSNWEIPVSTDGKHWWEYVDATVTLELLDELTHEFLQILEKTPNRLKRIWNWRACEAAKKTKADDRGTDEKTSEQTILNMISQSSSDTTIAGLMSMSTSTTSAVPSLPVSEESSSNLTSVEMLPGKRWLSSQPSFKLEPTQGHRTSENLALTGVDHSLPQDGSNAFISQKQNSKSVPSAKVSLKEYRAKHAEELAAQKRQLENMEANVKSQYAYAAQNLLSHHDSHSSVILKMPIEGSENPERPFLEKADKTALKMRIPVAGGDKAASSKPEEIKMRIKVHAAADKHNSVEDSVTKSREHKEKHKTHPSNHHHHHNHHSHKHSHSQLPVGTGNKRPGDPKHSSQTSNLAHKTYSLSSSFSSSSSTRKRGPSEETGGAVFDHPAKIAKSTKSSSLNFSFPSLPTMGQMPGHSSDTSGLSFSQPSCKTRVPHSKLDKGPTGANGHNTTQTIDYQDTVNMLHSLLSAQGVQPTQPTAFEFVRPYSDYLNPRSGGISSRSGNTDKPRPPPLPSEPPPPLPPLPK
The data set is described as follows: Cyclin dependent kinase inhibition (Reaction Biology Corp.). The class given is biochemical. Here is the method:
as §1

A further data set deals with T6, CDK2 (Homo sapiens, UniProt P24941).
T6 construct: Reaction Biology Corp., Malvern, PA (contract assay service)
Described as above. The class given is biochemical. Here is the method: as §1

The target of the next data set is DNA-PK (Homo sapiens, UniProt P78527). As to the kind of experiment: DNA-PK inhibition. It is filed as biochemical.
Data set [3] deals with Hepatocellular carcinoma, Neuroblastoma, and Mantle Cell lymphoma cell lines. As to the kind of experiment: Percent viability versus concentration, comparison with Palbociclib and combination. The class given is cell-based. Here is the method:
The percent viability versus concentration experimental procedures for hepatocellular carcinoma cell lines, neuroblastoma cell lines, and Mantle cell lymphoma cell lines was performed as described in example 6, example 4, and example 5, respectively.

The subject of data set [4] is Huh7 cells. The data set is described as follows: Huh7 tumor implantation in NGS mice, safety and efficacy. Conditions: 30 mg/kg oral gavage, 5 times per week for 2 weeks.
Text: 1×10^7 Huh7 cells were implanted into NGS mice. When tumors reached ˜100 mm^3 after 14 days of tumor implantation, animals were divided into four groups (n=8 per group).
The subject of a further data set is Mino and Granta cells. The data set is described as follows: Western blot PI3K and CDK4/cyclin D/Rb signaling in mantle cell lymphoma cells. It is filed as cell-based. As to conditions: 24 hours. The text has this: Cells were lysed in RIPA buffer and equal protein was loaded on SDS-PAGE gel followed by western blotting using p-AKT-Ser473, AKT, pRB-S780/811, RB, pP70S6K. β-actin served as loading control.

Another data set has as its target T7, PI3K-delta (Homo sapiens, UniProt O00329).
T7 construct: Thermo Fisher Scientific-Biosciences Life Sciences Solutions, Madison, WI (contract assay service)
As to the kind of experiment: PI3K inhibition (Thermo Fisher Scientific). Conditions: 10-point curve, grouped by potency; read-out: IC50 P13K δ. The class given is biochemical. The protocol: as §1, §6

In a further data set the target is T8, PI3K-gamma (Homo sapiens, UniProt P48736).
T8 construct: Thermo Fisher Scientific-Biosciences Life Sciences Solutions, Madison, WI (contract assay service)
T8 sequence (P48736 whole entry): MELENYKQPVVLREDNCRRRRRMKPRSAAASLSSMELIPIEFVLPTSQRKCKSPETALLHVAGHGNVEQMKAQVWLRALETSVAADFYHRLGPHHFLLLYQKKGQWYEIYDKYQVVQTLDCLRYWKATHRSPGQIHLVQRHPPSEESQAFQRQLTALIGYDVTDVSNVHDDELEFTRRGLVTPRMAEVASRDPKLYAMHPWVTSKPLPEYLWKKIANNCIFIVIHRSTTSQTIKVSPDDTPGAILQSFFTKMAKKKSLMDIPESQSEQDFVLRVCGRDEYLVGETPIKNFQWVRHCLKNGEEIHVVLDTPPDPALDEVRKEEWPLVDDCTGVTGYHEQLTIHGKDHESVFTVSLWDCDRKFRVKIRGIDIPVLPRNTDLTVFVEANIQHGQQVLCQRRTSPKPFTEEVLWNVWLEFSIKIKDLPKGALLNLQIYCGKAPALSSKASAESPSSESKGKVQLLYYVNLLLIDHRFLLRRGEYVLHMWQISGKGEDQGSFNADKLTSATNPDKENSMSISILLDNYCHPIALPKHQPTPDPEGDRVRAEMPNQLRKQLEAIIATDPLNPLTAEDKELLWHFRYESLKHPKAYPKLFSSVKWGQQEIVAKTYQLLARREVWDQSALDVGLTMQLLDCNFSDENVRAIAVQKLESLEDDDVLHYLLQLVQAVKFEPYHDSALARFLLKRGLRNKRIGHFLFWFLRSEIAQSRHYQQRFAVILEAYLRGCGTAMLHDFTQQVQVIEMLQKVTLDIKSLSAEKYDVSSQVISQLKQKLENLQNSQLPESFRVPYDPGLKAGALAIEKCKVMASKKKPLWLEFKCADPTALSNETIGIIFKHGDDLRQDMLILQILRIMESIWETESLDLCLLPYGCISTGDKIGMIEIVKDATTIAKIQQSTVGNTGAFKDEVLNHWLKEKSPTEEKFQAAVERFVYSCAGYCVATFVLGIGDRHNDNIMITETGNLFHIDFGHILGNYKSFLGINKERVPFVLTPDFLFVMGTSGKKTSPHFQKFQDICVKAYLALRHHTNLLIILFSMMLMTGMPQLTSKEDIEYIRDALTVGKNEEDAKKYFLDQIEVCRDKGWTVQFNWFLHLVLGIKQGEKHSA
As to the kind of experiment: PI3K inhibition (Thermo Fisher Scientific). The class given is biochemical. As to conditions: 10-point curve, grouped by potency; read-out: IC50 P13K γ. The protocol:
as §1, §6

Where [5] appears, read: 10-point curve, grouped by potency.

Where two headings read alike, the source gives them in different places.

PIM1, sequence (P11309 whole entry, species assumed): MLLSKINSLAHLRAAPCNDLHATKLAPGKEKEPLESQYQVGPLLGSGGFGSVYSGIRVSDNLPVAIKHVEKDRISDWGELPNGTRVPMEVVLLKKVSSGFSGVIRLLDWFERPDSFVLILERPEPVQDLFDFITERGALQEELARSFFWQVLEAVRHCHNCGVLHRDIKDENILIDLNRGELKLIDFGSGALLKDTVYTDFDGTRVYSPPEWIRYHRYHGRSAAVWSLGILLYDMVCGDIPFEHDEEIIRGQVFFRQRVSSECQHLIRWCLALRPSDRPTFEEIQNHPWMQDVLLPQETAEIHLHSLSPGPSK
CDK4/Cyclin D1, sequence (P11802 whole entry, species assumed): as the sequence (P11802 whole entry) above
CDK4/Cyclin D1, sequence (P24385 whole entry partner, species assumed): as the sequence (P24385 whole entry partner) above
CDK6/Cyclin D1, sequence (Q00534 whole entry, species assumed): as the sequence (Q00534 whole entry) above
CDK6/Cyclin D1, sequence (P24385 whole entry partner, species assumed): as the sequence (P24385 whole entry partner) above

In the case of `CN1CCN(c2ccc(Nc3ncc4cc(C#N)c(=O)n(C5CCCC5)c4n3)cc2)CC1` [ON123300, reference compound], the IC50 on BRD4 binding domain 1 is 45600 nM; at BRD4 binding domain 2, above 50000 nM; on CDK4/Cyclin D1, 3.87 nM; at CDK6/Cyclin D1, 9.82 nM.

For the compound `CN(C)C(=O)c1cc2cnc(Nc3ccc(-c4csc5c(=O)cc(N6CCOCC6)oc45)cc3)nc2n1C1CCCC1` [Compound 1, {1-Cyclopentyl-6-[p-(5-morpholino-7-oxo-4-oxa-1-thia-3-indenyl)phenylamino]-1,5,7-triaza-1H-inden-2-yl} (dimethylamino) formaldehyde], the IC50 with Jeko-1 (Homo sapiens, JeKo-1, 48 hours, read-out: Mantle Cell Line IC50 Values Jeko-1) is 851 nM; in the data set on Granta (48 hours, read-out: Mantle Cell Line IC50 Values Granta) it was 580 nM; with Mino (Homo sapiens, MINO, 48 hours, read-out: Mantle Cell Line IC50 Values Mino), 583 nM; with Hep3B, 1100 nM; in the data set with Huh7, 550 nM; with HepG2, 4200 nM. Further, the IC50 is 495 nM in the data set on Huh7 2H cell line; 962 nM in the data set on SMS-KNCR; 4500 nM in the data set with CHLA-136; 385 nM with CHLA-255; 3.26 nM against CDK6; below 100 nM against CDK6 (setting [5]). The IC50 was below 2.54 nM on CDK4; below 100 nM against CDK4 (setting [5]); 35 nM against PIM1; 2 nM at CDK9; 500 nM against CDK2; 21 nM against DNA-PK. Besides, the IC50 on PI3K-delta was below 100 nM; on PI3K-gamma it was 1000 to 5000 nM. For the same compound, the “times more potent than Palbociclib, Jeko-1” value with Jeko-1 (ratio of IC50 values) stood at 8.7 times. Moreover, the “times more potent than Palbociclib, Granta” value in the data set with Granta (ratio of IC50 values) came out at 17.7 times. The “times more potent than Palbociclib, Mino” value with Mino (ratio of IC50 values) came out at 82.1 times. In data set [1] (24 hours), this compound came in with a concentration at 24 h of 63 nM. In addition, the AUC(0-inf) in [1] (Hot Rod Formulation Kit #8) is 3520 ng·h/mL. The same compound returned a maximum concentration (Cmax) in data set [1] (Hot Rod Formulation Kit #8) of 1400 nM. Further, the Tmax in data set [1] (Hot Rod Formulation Kit #8) is 0.5 h. For the same compound, in data set [1] (Hot Rod Formulation Kit #8, read-out: T1/2 (half-life) (converted)), the half-life was 10.4 h. Further, the “phosphorylation of CDK target RB (pRB), Western blot” value in the data set with Huh7 cells [2] is on record as “blocks phosphorylation”. Moreover, in the data set with Huh7 cells [2], the “phosphorylation of PI3K target AKT (p-AKT), Western blot” value was “blocks phosphorylation”. In addition, in data set [3] (Hepatocellular carcinoma, Neuroblastoma, Mantle Cell lymphoma cell lines (FIG. 8A-8C)), the “cell viability compared with Palbociclib” value was “performed substantially better than Palbociclib”. In addition, the “cell viability compared with combination BKM120, JQ1, Palbociclib” value in [3] (hepatocellular carcinoma cells (FIG. 8D)) is recorded as “performed substantially better”. For the same compound, the “in vivo anticancer efficacy (Huh7 tumors)” value in the data set on Huh7 cells [4] is “comparable to the efficacy of 3 separate cognate inhibitors”. In addition, the “PI3K-AKT signaling (p-AKT), Western blot” value in the data set on Mino and Granta cells is on record as “inhibits”. Besides, the “cyclin D/RB signaling (phosphorylation of RB), Western blot” value in the data set on Mino and Granta cells is “inhibits”.
